Measured values as given in paper PMC11313072, “Copper(II) and Zinc(II) Complexes with Bacterial Prodigiosin Are Targeting Site III of Bovine Serum Albumin and Acting as DNA Minor Groove Binders” (International Journal of Molecular Sciences, 2024).
Each block holds one compound with its values, some of them ahead of it.

Biological target: T1, bovine serum albumin (BSA) (Bos taurus, UniProt P02769)
T1 construct: gene ALB; commercial native full-length BSA (Sigma-Aldrich), mature secreted protein
Assay: tryptophan fluorescence quenching
Format: binding
Settings: PBS pH 7.4, BSA 5 μM, excitation 280 nm, no site marker, double-log
Source text: tryptophan fluorescence quenching on bovine serum albumin (BSA)

T1 sequence (P02769 25-607): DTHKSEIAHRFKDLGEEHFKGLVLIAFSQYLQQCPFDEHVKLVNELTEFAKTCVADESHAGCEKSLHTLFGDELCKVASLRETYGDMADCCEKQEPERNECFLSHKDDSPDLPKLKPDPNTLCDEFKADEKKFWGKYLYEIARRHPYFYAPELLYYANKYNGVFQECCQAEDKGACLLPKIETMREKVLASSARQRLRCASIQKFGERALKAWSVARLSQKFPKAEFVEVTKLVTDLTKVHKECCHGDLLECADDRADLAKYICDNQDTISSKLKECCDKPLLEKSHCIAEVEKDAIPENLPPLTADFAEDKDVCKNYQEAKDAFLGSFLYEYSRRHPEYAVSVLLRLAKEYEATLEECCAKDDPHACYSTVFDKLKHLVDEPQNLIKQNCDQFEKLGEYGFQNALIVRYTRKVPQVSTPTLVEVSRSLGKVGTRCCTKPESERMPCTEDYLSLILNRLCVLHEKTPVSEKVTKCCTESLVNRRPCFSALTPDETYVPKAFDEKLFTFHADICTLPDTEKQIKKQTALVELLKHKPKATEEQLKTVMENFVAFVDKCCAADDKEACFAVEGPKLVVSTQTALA

Compound: CCCCCC1=C/C(=C/c2[nH]c(-c3ccc[nH]3)cc2OC)N=C1C [PG, prodigiosin]
KA (n = 0.97): 5770 M⁻¹

KA (n = 1.41): 805000 M⁻¹
Compound: CuPG

KA (n = 1.07): 7140 M⁻¹
Compound: ZnPG
